Holding throughout (experiment): relative viability (nuclei count vs DMSO), 5 days (fraction); higher = more cells survive
Compound in the experiment “Imatinib + Luminespib”: Cc1ccc(NC(=O)c2ccc(CN3CCN(C)CC3)cc2)cc1Nc1nccc(-c2cccnc2)n1 [Imatinib] + CCNC(=O)c1noc(-c2cc(C(C)C)c(O)cc2O)c1-c1ccc(CN2CCOCC2)cc1 [Luminespib] (partner 0.01 µM)
The gist of the method:
(§1)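 One day after seeding in 1536-well plates, lung cancer cell lines were dosed by pin tool. Dosing was either single-drug or a fixed anchor-drug dose plus five library-drug doses (not always all listed) in √10 steps. After 5 days, nuclei were stained in one fix-and-stain step and counted on 4× images, and relative viability is the nuclei count of treated wells over that of vehicle wells, given as the median of duplicate plates.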

Compound in the experiment “Imatinib + Crizotinib”: Cc1ccc(NC(=O)c2ccc(CN3CCN(C)CC3)cc2)cc1Nc1nccc(-c2cccnc2)n1 [Imatinib] + C[C@@H](Oc1cc(-c2cnn(C3CCNCC3)c2)cnc1N)c1c(Cl)ccc(F)c1Cl [Crizotinib] (partner 1 µM)
In a few lines:
as §1

Compound in the experiment “Imatinib + Olaparib”: Cc1ccc(NC(=O)c2ccc(CN3CCN(C)CC3)cc2)cc1Nc1nccc(-c2cccnc2)n1 [Imatinib] + O=C(c1cc(Cc2n[nH]c(=O)c3ccccc23)ccc1F)N1CCN(C(=O)C2CC2)CC1 [Olaparib] (partner 8 µM)
The gist of the method:
as §1

Compound in the experiment “Imatinib + OSI-027”: Cc1ccc(NC(=O)c2ccc(CN3CCN(C)CC3)cc2)cc1Nc1nccc(-c2cccnc2)n1 [Imatinib] + COc1cccc2cc(-c3nc([C@H]4CC[C@H](C(=O)O)CC4)n4ncnc(N)c34)[nH]c12 [OSI-027] (partner 0.5 µM)
The gist of the method:
as §1

For the cell line NCI-H2405, the relative viability was found to be 0.682 with Imatinib + Luminespib (first compound 0.02 µM); 0.575 with Imatinib + Luminespib (first compound 0.2 µM); 0.58 with Imatinib + Luminespib (first compound 0.6325 µM); 0.76 with Imatinib + Luminespib (first compound 2 µM); 0.917 with Imatinib + Crizotinib (first compound 0.02 µM); 0.879 in the experiment with Imatinib + Crizotinib (first compound 0.06325 µM). The relative viability with Imatinib + Crizotinib (first compound 0.2 µM) amounted to 0.827; with Imatinib + Crizotinib (first compound 0.6325 µM) it was 0.772; with Imatinib + Crizotinib (first compound 2 µM), 0.843; with Imatinib + Olaparib (first compound 0.02 µM), 0.933; with Imatinib + Olaparib (first compound 0.06325 µM), 0.947; with Imatinib + Olaparib (first compound 0.2 µM) it was 0.919. Moreover, the relative viability in the experiment with Imatinib + Olaparib (first compound 0.6325 µM) amounted to 0.875; with Imatinib + Olaparib (first compound 2 µM), 0.922; with Imatinib + OSI-027 (first compound 0.02 µM) it was 0.629; with Imatinib + OSI-027 (first compound 0.2 µM), 0.645; with Imatinib + OSI-027 (first compound 0.6325 µM) it was 0.592; with Imatinib + OSI-027 (first compound 2 µM) it was 0.641.

In the case of NCI-H460, the relative viability is 0.0343 with Imatinib + Luminespib (first compound 0.02 µM); 0.0424 with Imatinib + Luminespib (first compound 0.06325 µM); 0.0365 with Imatinib + Luminespib (first compound 0.2 µM); 0.0344 with Imatinib + Luminespib (first compound 0.6325 µM); 0.0321 with Imatinib + Luminespib (first compound 2 µM); 1.29 with Imatinib + Crizotinib (first compound 0.02 µM). Further, the relative viability with Imatinib + Crizotinib (first compound 0.06325 µM) came to 1.38; with Imatinib + Crizotinib (first compound 0.2 µM), 1.55; with Imatinib + Crizotinib (first compound 0.6325 µM), 0.881; with Imatinib + Crizotinib (first compound 2 µM) it was 0.85; with Imatinib + Olaparib (first compound 0.02 µM), 0.515; in the experiment with Imatinib + Olaparib (first compound 0.06325 µM), 0.431. Besides, the relative viability amounted to 0.402 with Imatinib + Olaparib (first compound 0.2 µM); 0.462 with Imatinib + Olaparib (first compound 0.6325 µM); 0.396 with Imatinib + Olaparib (first compound 2 µM); 0.743 with Imatinib + OSI-027 (first compound 0.02 µM); 1.09 with Imatinib + OSI-027 (first compound 0.06325 µM); 0.819 in the experiment with Imatinib + OSI-027 (first compound 0.2 µM). The relative viability amounted to 0.566 with Imatinib + OSI-027 (first compound 0.6325 µM) and 0.503 with Imatinib + OSI-027 (first compound 2 µM).

Turning to NCI-H3122, the relative viability with Imatinib + Luminespib (first compound 0.02 µM) is 0.0854; with Imatinib + Luminespib (first compound 0.06325 µM), 0.0818; with Imatinib + Luminespib (first compound 0.2 µM) it was 0.112; with Imatinib + Luminespib (first compound 0.6325 µM), 0.126; with Imatinib + Luminespib (first compound 2 µM), 0.076; with Imatinib + Crizotinib (first compound 0.02 µM), 0.253. Also, the relative viability with Imatinib + Crizotinib (first compound 0.06325 µM) amounted to 0.292; with Imatinib + Crizotinib (first compound 0.2 µM) it was 0.324; with Imatinib + Crizotinib (first compound 0.6325 µM) it was 0.313; with Imatinib + Crizotinib (first compound 2 µM), 0.255; with Imatinib + Olaparib (first compound 0.02 µM) it was 0.71; with Imatinib + Olaparib (first compound 0.06325 µM), 0.618. Also, the relative viability in the experiment with Imatinib + Olaparib (first compound 0.2 µM) was determined as 0.701; in the experiment with Imatinib + Olaparib (first compound 0.6325 µM), 0.693; with Imatinib + Olaparib (first compound 2 µM), 0.66; with Imatinib + OSI-027 (first compound 0.02 µM), 1.11; with Imatinib + OSI-027 (first compound 0.06325 µM) it was 0.831; with Imatinib + OSI-027 (first compound 0.2 µM), 1.09. Further, the relative viability with Imatinib + OSI-027 (first compound 2 µM) came out at 1.1.

Turning to LC-2-ad, the relative viability in the experiment with Imatinib + Luminespib (first compound 0.02 µM) worked out at 1.23; with Imatinib + Luminespib (first compound 0.06325 µM), 0.744; in the experiment with Imatinib + Luminespib (first compound 0.2 µM), 0.935; with Imatinib + Luminespib (first compound 0.6325 µM), 1; with Imatinib + Luminespib (first compound 2 µM), 1.07; in the experiment with Imatinib + Crizotinib (first compound 0.02 µM), 0.458. Moreover, the relative viability is 0.502 with Imatinib + Crizotinib (first compound 0.2 µM); 0.434 with Imatinib + Crizotinib (first compound 0.6325 µM); 0.384 in the experiment with Imatinib + Crizotinib (first compound 2 µM); 0.756 with Imatinib + Olaparib (first compound 0.02 µM); 0.751 with Imatinib + Olaparib (first compound 0.2 µM); 0.761 in the experiment with Imatinib + Olaparib (first compound 0.6325 µM). Moreover, the relative viability was found to be 0.694 with Imatinib + Olaparib (first compound 2 µM); 0.788 with Imatinib + OSI-027 (first compound 0.02 µM); 0.623 in the experiment with Imatinib + OSI-027 (first compound 0.06325 µM); 0.822 in the experiment with Imatinib + OSI-027 (first compound 0.2 µM); 0.833 with Imatinib + OSI-027 (first compound 0.6325 µM); 0.929 in the experiment with Imatinib + OSI-027 (first compound 2 µM).

As for NCI-H596, the relative viability with Imatinib + Luminespib (first compound 0.02 µM) was 0.984; with Imatinib + Luminespib (first compound 0.06325 µM), 1.29; in the experiment with Imatinib + Luminespib (first compound 0.2 µM), 1.01; in the experiment with Imatinib + Luminespib (first compound 0.6325 µM), 0.798; in the experiment with Imatinib + Luminespib (first compound 2 µM) it was 0.91; with Imatinib + Crizotinib (first compound 0.06325 µM), 0.991. In addition, the relative viability came to 1.06 with Imatinib + Crizotinib (first compound 0.2 µM); 0.928 with Imatinib + Crizotinib (first compound 0.6325 µM); 0.975 in the experiment with Imatinib + Crizotinib (first compound 2 µM); 0.648 with Imatinib + Olaparib (first compound 0.02 µM); 0.811 in the experiment with Imatinib + Olaparib (first compound 0.06325 µM); 0.681 in the experiment with Imatinib + Olaparib (first compound 0.2 µM). Further, the relative viability was 0.665 with Imatinib + Olaparib (first compound 0.6325 µM); 0.747 with Imatinib + Olaparib (first compound 2 µM); 0.775 in the experiment with Imatinib + OSI-027 (first compound 0.02 µM); 0.669 in the experiment with Imatinib + OSI-027 (first compound 0.06325 µM); 0.689 with Imatinib + OSI-027 (first compound 0.2 µM); 0.626 with Imatinib + OSI-027 (first compound 0.6325 µM). The relative viability in the experiment with Imatinib + OSI-027 (first compound 2 µM) worked out at 0.61.

For LCLC-103H, the relative viability in the experiment with Imatinib + Luminespib (first compound 0.02 µM) was found to be 1.03; with Imatinib + Luminespib (first compound 0.06325 µM), 0.8; in the experiment with Imatinib + Luminespib (first compound 0.2 µM), 1.04; with Imatinib + Luminespib (first compound 0.6325 µM) it was 0.892; with Imatinib + Luminespib (first compound 2 µM) it was 0.863; with Imatinib + Crizotinib (first compound 0.02 µM), 1.16. Further, the relative viability came to 0.937 with Imatinib + Crizotinib (first compound 0.6325 µM); 0.776 with Imatinib + Olaparib (first compound 0.02 µM); 0.773 in the experiment with Imatinib + Olaparib (first compound 0.06325 µM); 0.834 with Imatinib + Olaparib (first compound 0.2 µM); 0.694 in the experiment with Imatinib + Olaparib (first compound 0.6325 µM); 0.453 with Imatinib + OSI-027 (first compound 0.02 µM). For the same cell line, the relative viability turned out to be 0.375 in the experiment with Imatinib + OSI-027 (first compound 0.06325 µM), 0.548 with Imatinib + OSI-027 (first compound 0.2 µM), 0.415 in the experiment with Imatinib + OSI-027 (first compound 0.6325 µM) and 0.433 with Imatinib + OSI-027 (first compound 2 µM).

As to HOP-62, the relative viability came to 1.06 with Imatinib + Luminespib (first compound 0.02 µM); 0.84 with Imatinib + Luminespib (first compound 0.06325 µM); 1.03 in the experiment with Imatinib + Luminespib (first compound 0.2 µM); 0.886 with Imatinib + Luminespib (first compound 0.6325 µM); 0.87 with Imatinib + Crizotinib (first compound 0.02 µM); 0.984 with Imatinib + Crizotinib (first compound 0.2 µM). Further, the relative viability was found to be 1.06 with Imatinib + Crizotinib (first compound 0.6325 µM); 1 with Imatinib + Crizotinib (first compound 2 µM); 0.408 with Imatinib + Olaparib (first compound 0.02 µM); 0.478 with Imatinib + Olaparib (first compound 0.06325 µM); 0.456 with Imatinib + Olaparib (first compound 0.2 µM); 0.498 with Imatinib + Olaparib (first compound 0.6325 µM). Also, the relative viability in the experiment with Imatinib + Olaparib (first compound 2 µM) stood at 0.372; with Imatinib + OSI-027 (first compound 0.02 µM), 0.999; with Imatinib + OSI-027 (first compound 0.2 µM) it was 0.993; with Imatinib + OSI-027 (first compound 0.6325 µM) it was 0.724; with Imatinib + OSI-027 (first compound 2 µM), 0.781.

Values taken from the supplement of paper PMC10307832.
